# Laboratory results: US11590232B2, “Bioconjugates of neuropeptides derivatives” (CENTRE NATIONAL DE LA RECHERCHE SCIENTIFIQUE, priority 2018, dated 2023)
# Key:
# [1] = In vivo imaging biodistribution (IVIS Lumina) in mice with λ-carrageenan-induced paw inflammation; design: species or system Swiss mice; conditions: i.v. injection, λ-carrageenan administered mice
# Procedure: In parallel, control non-inflamed shaved mice (injected with 20 μL saline into the right hind paw, instead of λ-carrageenan), received also injection of fluorescent LENK-SQ NPs. The biodistribution of the NPs was recorded at 0.5, 2, 4, 6 and 24 h after excitation at 640 nm and emission in the 695-775 nm filter respectively, using IVIS Lumina LT series III system (Caliper, Life science). During imaging, the mice were kept on the imaging stage under anesthesia with 2% isoflurane gas in oxygen flow (1 L/min) and were imaged in ventral position. Images and measures of fluorescence signals were acquired and analyzed with Living Imaging®. To measure photon radiance, regions of interest (ROI, threshold of 35%) were selected on the paw of the mice and average radiant efficiency values were used for quantification. Threshold of ROI for the inflamed paw was then pasted on the non-inflamed paw to compare the radiance with the same region.
# [2] = Dynamic light scattering (DLS) measurement of LENK-SQ NPs: size, zeta potential; format: physicochemical; conditions: in 0.1 mM KCl
# Procedure: The mean particle size, polydispersity index (PDI) and zeta potential were primarily evaluated by DLS (Nano ZS, Malvern; 173° scattering angle at 25° C.).
# The measurements were performed in triplicate following appropriate dilution of the nanoparticles in water (DLS) or in 0.1 mM KCl (zeta potential).
# [3] = system: central or peripheral opioid receptors; assay: Opioid receptor blockade with naloxone or naloxone methiodide before agonist, Hargreaves test; format: in vivo, Sprague-Dawley rats; conditions: for reduction of AUC value by NaI pre-treatment compared with agonist alone: NaI (naloxone, brain-permeant) 0.5 mg/kg s.c. 15 min before agonist; for reduction of AUC value by NaI-M pre-treatment compared with agonist alone: NaI-M (naloxone methiodide, brain-impermeant) 0.5 mg/kg s.c. 15 min before agonist
# [4] = 37° C.
# Procedure: In the case of LENK-SQ-Diox NPs, diluted serum (30% in 5% dextrose solution) was used for the release study. […] To quantify the residual LENK-SQ bioconjugate and the released LENK, the resulting supernatants (150 μL) were evaporated to dryness at 40° C. under nitrogen flow, and then solubilized in 150 μL of Milli-Q water.
# [5] = system: thermal hyperalgesia in λ-carrageenan-treated rats; assay: Hargreaves test (thermal nociceptive test) in λ-carrageenan-induced inflammatory pain; format: in vivo, Sprague-Dawley rats
# [6] = diluted mouse serum (30% in 5% dextrose solution)
smiles,measurement,setting,value
CCCCCCCCCCCCCCCCCCN1/C(=C/C=C/C=C/C2=[N+](CCCCCCCCCCCCCCCCCC)c3ccccc3C2(C)C)C(C)(C)c2ccccc21.[O-][Cl+3]([O-])([O-])[O-] [DiD solution],accumulation of fluorescence in the inflamed paw,[1],no significant accumulation of fluorescence
"CC(C)=CCC/C(C)=C/CC/C(C)=C/CC/C=C(\C)CC/C=C(\C)CCC(=O)NC(Cc1ccc(O)cc1)C(=O)NCC(=O)NCC(=O)NC(Cc1ccccc1)C(=O)NC(CC(C)C)C(=O)O (centres unmarked) [LENK-SQ-Am, Leu-enkephalin-squalene Bioconjugate with Amide Spacer]",zeta potential (sign of charge) of NPs,[2],negative
same,reduction of AUC value by NaI pre-treatment compared with agonist alone,[3],73%
same,reduction of AUC value by NaI-M pre-treatment compared with agonist alone,[3],96%
same,time stable in serum without significant decrease of bioconjugate,[4]; mouse serum,≥ 48 h
"CC(C)=CCC/C(C)=C/CC/C(C)=C/CC/C=C(\C)CC/C=C(\C)CCCOC(=O)COCC(=O)NC(Cc1ccc(O)cc1)C(=O)NCC(=O)NCC(=O)NC(Cc1ccccc1)C(=O)NC(CC(C)C)C(=O)O (centres unmarked) [LENK-SQ-Dig, Leu-enkephalin-squalene Bioconjugate with diglycolic Spacer]",time of decline of PWL down to baseline,"[5]; 20 mg/kg i.v., rats",220 min
same,zeta potential (sign of charge) of NPs,[2],negative
same,release of free LENK peptide,[4]; mouse serum,no presence of free peptide was detected
same,time of complete disappearance of the bioconjugate,[4]; mouse serum,2 h
"CC(C)=CCC/C(C)=C/CC/C(C)=C/CC/C=C(\C)CC/C=C(\C)CCC(=O)OCOC(=O)C(CC(C)C)NC(=O)C(Cc1ccccc1)NC(=O)CNC(=O)CNC(=O)C(N)Cc1ccc(O)cc1 (centres unmarked) [LENK-SQ-Diox, Leu-Enkephalin-Squalene Bioconjugate with Dioxycarbonyl Spacer]",zeta potential (sign of charge) of NPs,[2],net positive charge
same,reduction of AUC value by NaI pre-treatment compared with agonist alone,[3],66%
same,reduction of AUC value by NaI-M pre-treatment compared with agonist alone,[3],81%
same,release of the free LENK peptide,[4]; [6],progressively released the free LENK peptide
same,time till which the concentration of the bioconjugate decreased gradually,[4]; [6],7 h
CN1CC[C@]23c4c5ccc(O)c4O[C@H]2[C@@H](O)C=C[C@H]3[C@H]1C5 [morphine],paw withdrawal latency (PWL),"[5]; 10 min post-injection, morphine 1 mg/kg, 3 h after λ-carrageenan, rats",12.87 ± 1.38 s
same,time post-administration at which no longer significant anti-hyperalgesic effect was observed,"[5]; morphine 1 mg/kg, rats",100 min
same,maximal PWL values compared with basal PWL of control naïve rats,[5]; λ-carrageenan-treated rats,twice as high as those found in control naïve rats
